Counter-ions that a name gives are not always drawn.
Assays:
SB.mhdgc-1 [1] = experiment: area under the dose-response curve of % viability (trapezoidal, 11 doses) (% viability x log10 concentration); higher = less cytotoxic; conditions: SB.mhdgc-1 (hereditary c.1380delA CDH1 gastric cancer)
Procedure, shortened: (§1)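 Reported here is DMSO-normalised viability, either at the highest concentration or as a trapezoidal area under the curve. Hereditary or sporadic patient-derived gastric cancer cells received compound by pintool at 11 threefold-diluted concentrations and were read with CellTiter-Glo after 48 h.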

SB.msgc-1 [2] = experiment: as above; conditions: SB.msgc-1 (sporadic gastric cancer)
Procedure, shortened: as §1

SB.mhdgc-1 [3] = experiment: viability at highest tested concentration (MAXR) relative to DMSO; higher = less cytotoxic; conditions: SB.mhdgc-1 (hereditary c.1380delA CDH1 gastric cancer)
Procedure, shortened: as §1

SB.msgc-1 [4] = experiment: as above; conditions: SB.msgc-1 (sporadic gastric cancer)
Procedure, shortened: as §1

SMILES | area under the dose-response curve (SB.mhdgc-1 [1]) | area under the dose-response curve (SB.msgc-1 [2]) | viability (SB.mhdgc-1 [3]) [%] | viability (SB.msgc-1 [4]) [%]
CC(C)[C@H](N)C(=O)OCCOC[N]1C=NC2=C1\N=C(N)/NC2=O [Valaciclovir] (top concentration 46.0829 µM) | 528 | 508 | 110 | 94.6
CCCC(CCC)C(=O)[O-] [Valproic acid sodium salt] (top concentration 46.0829 µM) | 425 | 505 | 47.7 | 46.3
C/C=C/C[C@@H](C)C(=O)[C@H]1C(=O)N[C@@H](C(C)C)C(=O)N(C)CC(=O)N(C)[C@@H](CC(C)C)C(=O)N[C@@H](C(C)C)C(=O)N(C)[C@@H](CC(C)C)C(=O)N[C@@H](C)C(=O)N[C@H](C)C(=O)N(C)[C@@H](CC(C)C)C(=O)N(C)[C@@H](CC(C)C)C(=O)N(C)[C@@H](C(C)C)C(=O)N1C [Valspodar] (top concentration 46.0829 µM) | 393 | 475 | 37.4 | 35.1
CN[C@H](CC(C)C)C(=O)N[C@H]1C(=O)N[C@@H](CC(N)=O)C(=O)N[C@H]2C(=O)N[C@H]3C(=O)N[C@H](C(=O)N[C@H](C(=O)O)c4cc(O)cc(O)c4-c4cc3ccc4O)[C@H](O)c3ccc(c(Cl)c3)Oc3cc2cc(c3O[C@@H]2O[C@H](CO)[C@@H](O)[C@H](O)[C@H]2O[C@H]2C[C@](C)(N)[C@H](O)[C@H](C)O2)Oc2ccc(cc2Cl)[C@H]1O [Vancomycin hydrochloride] (top concentration 46.0829 µM) | 503 | 521 | 73.2 | 99.9
COc1cc2c(Nc3ccc(Br)cc3F)ncnc2cc1OCC1CCN(C)CC1 [Vandetanib] (top concentration 46.0829 µM) | 410 | 456 | 3.39 | 34
Cl.Cl.Fc1ccc(C(OCCN2CCN(CCCc3ccccc3)CC2)c2ccc(F)cc2)cc1 [Vanoxeamine] (top concentration 46.0829 µM) | 416 | 489 | 2.93 | 39.6
O=C(O)CC/C=C\CC[C@@H]1[C@@H](N2CCCCC2)[C@@H](O)C[C@@H]1OCc1ccc(-c2ccccc2)cc1 [Vapiprost hydrochloride] (top concentration 46.0829 µM) | 560 | 539 | 79.6 | 106
CCCC1=NC(=C2[N]1NC(=N\C2=O)/C3=CC(=CC=C3OCC)[S+]([O-])(=O)N4CCN(CC)CC4)C [Vardenafil] (top concentration 46.0829 µM) | 504 | 437 | 29.8 | 7.86
Cl.c1cnc2cc3c(cc2n1)C1CNCC3C1 [Varenicline tartrate] (top concentration 46.0829 µM) | 551 | 529 | 84.2 | 93.8
CCc1c(C(=O)C(N)=O)c2c(OCC(=O)O)cccc2n1Cc1ccccc1 [Varespladib] (top concentration 46.0829 µM) | 543 | 523 | 49.9 | 55.3
COC(=O)c1ccc2c(c1)NC(=O)/C2=C(\Nc1ccc(N(C)C(=O)CN2CCN(C)CC2)cc1)c1ccccc1 [Vargatef] (top concentration 46.0829 µM) | 418 | 409 | 1.22 | 6.94
C[C@@H]\1COC(=N1)\NC2=CC3=C(C=C2)N=CN=C3NC4=CC(=C(OCC5=NC=CS5)C=C4)Cl [Varlitinib tosylate] (top concentration 46.0829 µM) | 354 | 272 | 2.8 | 10.8
Cl.Cl.Clc1ccc(Nc2nnc(Cc3ccncc3)c3ccccc23)cc1 [Vatalanib] (top concentration 46.0829 µM) | 417 | 481 | 32.5 | 53.2
CC(=O)O[C@H]1C[C@@H]2CC[C@@H]3[C@H](CC[C@@]4(C)[C@H]3C[C@H]([N+]3(C)CCCCC3)[C@@H]4OC(C)=O)[C@@]2(C)C[C@@H]1N1CCCCC1 [Vecuronium bromide] (top concentration 46.0829 µM) | 492 | 526 | 49.1 | 66
O=C(O)[C@@H](c1ccc(OCc2ccc3ccccc3n2)cc1)C1CCCC1 [Veliflapon] (top concentration 46.0829 µM) | 536 | 523 | 97.1 | 82.7
C[C@]1(c2nc3c(C(N)=O)cccc3[nH]2)CCCN1 [Veliparib] (top concentration 46.0829 µM) | 404 | 447 | 54.2 | 69.4
CCC[S+](=O)([O-])Nc1ccc(F)c(C(=O)c2c[nH]c3ncc(-c4ccc(Cl)cc4)cc23)c1F [Vemurafenib] (top concentration 46.0829 µM) | 507 | 537 | 52.4 | 38
COc1ccc(C(CN(C)C)C2(O)CCCCC2)cc1 (stereo unspecified) [Venlafaxine hydrochloride] (top concentration 46.0829 µM) | 519 | 516 | 90.6 | 81.9
COC(=O)CCC1=C(C)C2=CC3=NC(=CC4=C(C)C(=C([NH]4)C=C\5N=C(C=C1[NH]2)\C(=C5C)CCC(O)=O)C=C)\C6=C\C=C(/[C@@H](C(=O)OC)[C@@]36C)C(=O)OC [Verteporfin] (top concentration 46.0829 µM) | 418 | 315 | 37.4 | 4.28
COC[C@H](c1ccc(C(F)(F)F)cc1)N1CCN(C2(C)CCN(C(=O)c3c(C)ncnc3C)CC2)C[C@H]1C.O=C(O)/C=C\C(=O)O [Vicriviroc] (top concentration 46.0829 µM) | 423 | 507 | 4.76 | 4.65

SMILES | area under the dose-response curve (SB.mhdgc-1 [1]) | area under the dose-response curve (SB.msgc-1 [2]) | viability (SB.mhdgc-1 [3]) [%] | viability (SB.msgc-1 [4]) [%]
Nc1ncnc2c1ncn2[C@@H]1O[C@@H](CO)[C@H](O)[C@@H]1O [Vidarabine] (top concentration 34.4879 µM) | 552 | 586 | 89.7 | 109
COC1=CC(=CC=C1)C2=CC=C(NC(=O)/C3=C(/CCC3)C(O)=O)C(=C2)F [Vidofludimus] (top concentration 46.0829 µM) | 445 | 485 | 40.8 | 44.9
CC[C@]1(O)C[C@H]2CN(CCC3=C([NH]C4=C3C=CC=C4)[C@@](C2)(C(=O)OC)C5=CC6=C(C=C5OC)N(C=O)[C@H]7[C@](O)([C@H](OC(C)=O)[C@]8(CC)\C=C/C[N@@]9CC[C@]67[C@H]89)C(=O)OC)C1 [Vincristine sulfate] (top concentration 46.0829 µM) | 260 | 251 | 33.5 | 36.7
CC[C@]1(O)C[C@@H]2CN(CCc3c([nH]c4ccccc34)[C@@](C(=O)OC)(c3cc4c(cc3OC)N(C)[C@H]3[C@@](O)(C(N)=O)[C@H](O)[C@]5(CC)C=CCN6CC[C@]43[C@@H]65)C2)C1 [Vindesine sulfate] (top concentration 46.0829 µM) | 225 | 221 | 36.3 | 40.5
CC[C@]12\C=C/CN3CC[C@]4([C@@H](N(C)C5=CC(=C(C=C45)[C@]6(C[C@H]7C[C@H](CN(C7)CC8=C6[NH]C9=C8C=CC=C9)C(C)(F)F)C(=O)OC)OC)[C@](O)([C@@H]1OC(C)=O)C(=O)OC)[C@H]23 [Vinflunine] (top concentration 46.0829 µM) | 265 | 267 | 8.01 | 17.2
CCC1=C[C@@H]2CN(C1)Cc1c([nH]c3ccccc13)[C@@](C(=O)OC)(c1cc3c(cc1OC)N(C)[C@H]1[C@@](O)(C(=O)OC)[C@H](OC(C)=O)[C@]4(CC)C=CCN5CC[C@]31[C@@H]54)C2 [Vinorelbine] (top concentration 46.0829 µM) | 264 | 347 | 15.2 | 43.5
CCOC(=O)\C1=C\[C@]2(CC)CCCN3CCC4=C([C@H]23)[N]1C5=C4C=CC=C5 [Vinpocetine] (top concentration 46.0829 µM) | 490 | 469 | 3.48 | 4.04
Cc1c(O)cccc1C(=O)N[C@@H](CSc1ccccc1)[C@H](O)CN1C[C@H]2CCCC[C@H]2C[C@H]1C(=O)NC(C)(C)C [Viracept] (top concentration 46.0829 µM) | 431 | 486 | 3.25 | 20
C[S+](=O)([O-])c1ccc(C(=O)Nc2ccc(Cl)c(-c3ccccn3)c2)c(Cl)c1 [Vismodegib] (top concentration 46.0829 µM) | 535 | 494 | 81.5 | 64.1
CC[C@@H]1C(=O)N(C)c2cnc(Nc3ccc(C(=O)NC4CCC(N5CCN(CC6CC6)CC5)CC4)cc3OC)nc2N1C(C)C (stereo partly specified) [Volasertib] (top concentration 46.0829 µM) | 363 | 345 | 3.26 | 16.2
CCOC(=O)N[C@@H]1CC[C@@H]2[C@@H](C1)C[C@H]1C(=O)O[C@H](C)[C@H]1[C@H]2/C=C/c1ccc(-c2cccc(F)c2)cn1 [Vorapaxar] (top concentration 46.0829 µM) | 489 | 575 | 53.1 | 73.5
C[C@@H](c1ncncc1F)[C@](O)(Cn1cncn1)c1ccc(F)cc1F [Voriconazole] (top concentration 46.0829 µM) | 558 | 523 | 97.7 | 89.1
O=C(CCCCCCC(=O)Nc1ccccc1)NO [Vorinostat] (top concentration 46.0829 µM) | 456 | 382 | 43.4 | 5.85
CN[C@@H]1CN(C[C@H]1OC)C2=NC3=C(C=C2)C(=O)C(=C\N3C4=NC=CS4)/C(O)=O [Vosaroxin] (top concentration 23.0415 µM) | 445 | 471 | 23.6 | 46
c1cncc(CN2CCC(n3ncc4c(N5CCOCC5)nc(-c5ccc6[nH]ccc6c5)nc43)CC2)c1 [WAY-600] (top concentration 46.0829 µM) | 407 | 445 | 29.4 | 27.2
COc1cc2ncnc(Nc3cc(Br)c(O)c(Br)c3)c2cc1OC [WHI-P97] (top concentration 46.0829 µM) | 279 | 294 | 54.9 | 33.9
C[C@H](NC(=O)/C(C#N)=C/c1cccc(Br)n1)c1ccccc1 [WP-1066] (top concentration 46.0829 µM) | 431 | 408 | 28.2 | 7.12
CN1CCN(Cc2ccc(NC(=O)Nc3ccc(Oc4cc(NC(=O)C5CC5)ncn4)cc3)cc2C(F)(F)F)CC1 [WS3] (top concentration 46.0829 µM) | 328 | 384 | 35 | 2.06
COC(=O)Nc1ccc(-c2nc(N3CCOCC3)c3cnn(C4CCN(C(=O)OC)CC4)c3n2)cc1 [WYE-354] (top concentration 46.0829 µM) | 191 | 339 | 34.2 | 57.3

Source: the supplement of paper PMC5412046
